Experimental data taken from US6303630A, “Diarylsulfone non-nucleoside reverse transcriptase inhibitors of human immunodeficiency virus” (University of the Sciences in Philadelphia, priority 2000, dated 2001).
Like-named read-outs stand apart in the source and are kept apart here.

Experiments:
HIV-1 [1] = settings: Artico et al. 1995; cited from earlier work
HIV-1 [2] = settings: in vitro, McMahon et al. 1993; cited from earlier work
[3] = tested on: HIV-1 reverse transcriptase; settings: McMahon et al. 1993; cited from earlier work
HIV-1 [4] = assay: NCI in vitro anti-HIV drug screen: XTT-formazan assay, protection of T4 lymphocytes (CEM) from HIV-1 cytopathic effects; type: cell-based, human immunodeficiency virus (HIV-1); settings: for EC50 / inhibition at 200 µM / inhibition at 20 µM / inhibition at 2 µM / inhibition at 0.2 µM / inhibition at 63.2 µM / inhibition at 6.33 µM / inhibition at 0.634 µM / inhibition at 0.0635 µM: Human immunodeficiency virus 1, CCRF-CEM; for EC50: 144 h, HIV-1 infected CEM cells, 6 days, XTT, approximate values, read-out: EC50 (50% effective concentration against HIV cytopathic effects); for inhibition at 200 µM / inhibition at 20 µM / inhibition at 2 µM / inhibition at 0.2 µM / inhibition at 63.2 µM / inhibition at 6.33 µM / inhibition at 0.634 µM / inhibition at 0.0635 µM: read-out: Percent of Protection; for activity at 200 µM / activity at 20 µM / activity at 2 µM / activity at 0.2 µM / activity at 63.2 µM / activity at 6.33 µM / activity at 0.634 µM / activity at 0.0635 µM: Human immunodeficiency virus 1, Lymphocyte, read-out: Percent of Control, Infected; for TI50 (IC/EC), Therapeutic Index: IC50/EC50
Outline: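 CEM T4 lymphocytes with serial half-log10 compound dilutions were infected with HIV-1 and incubated 6 days at 37° in 5% CO2. Cell protection from cytolysis was quantified by XTT formazan absorbance, with microscopic confirmation, against uninfected drug-treated toxicity controls.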

[5] = tested on: T4 lymphocytes (CEM cell line); assay: Cell growth / toxicity control in uninfected T4 lymphocytes (CEM), XTT-formazan; type: cell-based; settings: for IC50: uninfected CEM cells, 6 days, XTT, approximate values, read-out: IC50 (50% inhibitory concentration for cell growth); for activity at 200 µM / activity at 20 µM / activity at 2 µM / activity at 0.2 µM / activity at 63.2 µM / activity at 6.33 µM / activity at 0.634 µM / activity at 0.0635 µM: read-out: Percent of Control, Uninfected
Outline: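 Uninfected CEM T4 lymphocytes received compound in half-log10 dilutions (1:200 final dilution of DMSO solution) as toxicity control alongside HIV-1-infected cultures. After 6 days at 37° in 5% CO2, viability was quantified by XTT formazan absorbance plus microscopy.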

[6] = Homo sapiens, CCRF-CEM, dose 2.00 × 10^-4 Molar
[7] = Homo sapiens, CCRF-CEM, dose 2.00 × 10^-5 Molar
[8] = Homo sapiens, CCRF-CEM, dose 2.00 × 10^-6 Molar
[9] = Homo sapiens, CCRF-CEM, dose 2.00 × 10^-7 Molar
[10] = Homo sapiens, CCRF-CEM, dose 6.32 × 10^-5 Molar
[11] = Homo sapiens, CCRF-CEM, dose 6.33 × 10^-6 Molar
[12] = Homo sapiens, CCRF-CEM, dose 6.34 × 10^-7 Molar
[13] = Homo sapiens, CCRF-CEM, dose 6.35 × 10^-8 Molar

## CCOC(=O)c1cccn1S(=O)(=O)c1ccccc1[N+](=O)[O-]
HIV-1 [1]
  anti-HIV-1 efficacy: the most efficacy

## O=[N+]([O-])c1ccccc1S(=O)(=O)c1ccccc1 [2-nitrophenyl phenylsulfone]
HIV-1 [2]
  protecting human cells in culture from HIV-1 cytopathic effects / preventing HIV-1 replication: high efficacy
[3]
  inhibition of HIV-1 replication via inhibition of HIV-1 reverse transcriptase: inhibition of HIV-1 replication via inhibition of HIV-1 reverse transcriptase

## CNc1ccccc1S(=O)(=O)c1ccccc1Cl [Compound 82, 2-(2-CHLOROPHENYSULFONYL)-N-METHYLANILINE]
HIV-1 [4]
  EC50: 29.7 µM
  TI50 (IC/EC), Therapeutic Index: 4.93 × 10^0
HIV-1 [4]; dose 2.00 × 10^-4 Molar
  inhibition at 200 µM: 3.76%
  activity at 200 µM: 34.6%
HIV-1 [4]; dose 2.00 × 10^-5 Molar
  inhibition at 20 µM: 41.4%
  activity at 20 µM: 60.1%
HIV-1 [4]; dose 2.00 × 10^-6 Molar
  inhibition at 2 µM: -5.07%
  activity at 2 µM: 28.6%
HIV-1 [4]; dose 2.00 × 10^-7 Molar
  inhibition at 0.2 µM: -22.6%
  activity at 0.2 µM: 16.6%
HIV-1 [4]; dose 6.32 × 10^-5 Molar
  inhibition at 63.2 µM: 68.1%
  activity at 63.2 µM: 78.3%
HIV-1 [4]; dose 6.33 × 10^-6 Molar
  inhibition at 6.33 µM: 24.5%
  activity at 6.33 µM: 48.6%
HIV-1 [4]; dose 6.34 × 10^-7 Molar
  inhibition at 0.634 µM: -8.87%
  activity at 0.634 µM: 26%
HIV-1 [4]; dose 6.35 × 10^-8 Molar
  inhibition at 0.0635 µM: 23.7%
  activity at 0.0635 µM: 48.1%
[5]; Homo sapiens, CCRF-CEM, 144 h
  IC50: 146 µM
[5]; [6]
  activity at 200 µM: 33.9%
[5]; [7]
  activity at 20 µM: 78.2%
[5]; [8]
  activity at 2 µM: 91.2%
[5]; [9]
  activity at 0.2 µM: 60.8%
[5]; [10]
  activity at 63.2 µM: 93.3%
[5]; [11]
  activity at 6.33 µM: 84.2%
[5]; [12]
  activity at 0.634 µM: 96.1%
[5]; [13]
  activity at 0.0635 µM: 93.2%

## CNc1ccccc1S(=O)(=O)c1ccc(Cl)cc1OC [Compound 86, 2-(4-chloro-2-methoxyphenylsulfonyl)-N-methylaniline]
HIV-1 [4]
  EC50: 106 µM
  TI50 (IC/EC), Therapeutic Index: > 1.88 × 10^0
HIV-1 [4]; dose 2.00 × 10^-4 Molar
  inhibition at 200 µM: 78.8%
  activity at 200 µM: 79.2%
HIV-1 [4]; dose 2.00 × 10^-5 Molar
  inhibition at 20 µM: 5.32%
  activity at 20 µM: 7.21%
HIV-1 [4]; dose 2.00 × 10^-6 Molar
  inhibition at 2 µM: 0.36%
  activity at 2 µM: 2.35%
HIV-1 [4]; dose 2.00 × 10^-7 Molar
  inhibition at 0.2 µM: 1.18%
  activity at 0.2 µM: 3.16%
HIV-1 [4]; dose 6.32 × 10^-5 Molar
  inhibition at 63.2 µM: 27.1%
  activity at 63.2 µM: 28.5%
HIV-1 [4]; dose 6.33 × 10^-6 Molar
  inhibition at 6.33 µM: 1.52%
  activity at 6.33 µM: 3.49%
HIV-1 [4]; dose 6.34 × 10^-7 Molar
  inhibition at 0.634 µM: 1.22%
  activity at 0.634 µM: 3.2%
HIV-1 [4]; dose 6.35 × 10^-8 Molar
  inhibition at 0.0635 µM: 0.03%
  activity at 0.0635 µM: 2.03%
[5]; Homo sapiens, CCRF-CEM, 144 h
  IC50: > 200 µM
[5]; [6]
  activity at 200 µM: 83.9%
[5]; [7]
  activity at 20 µM: 88.3%
[5]; [8]
  activity at 2 µM: 96.5%
[5]; [9]
  activity at 0.2 µM: 91.7%
[5]; [10]
  activity at 63.2 µM: 95.9%
[5]; [11]
  activity at 6.33 µM: 94.8%
[5]; [12]
  activity at 0.634 µM: 97.1%
[5]; [13]
  activity at 0.0635 µM: 95.8%

## CNc1ccccc1S(=O)(=O)c1ccccc1[N+](=O)[O-] [Example 22, 2-(2-nitrophenylsulfonyl)-N-methylaniline]
HIV-1 [4]
  TI50 (IC/EC), Therapeutic Index: 1.80 × 10^+2
HIV-1 [4]; dose 2.00 × 10^-4 Molar
  Percent of Control, Infected: 6.35%
HIV-1 [4]; dose 2.00 × 10^-4 Molar, 200 µM
  Percent of Protection: 1.42%
HIV-1 [4]; dose 2.00 × 10^-5 Molar
  Percent of Control, Infected: 43.49%
HIV-1 [4]; dose 2.00 × 10^-5 Molar, 20 µM
  Percent of Protection: 40.52%
HIV-1 [4]; dose 2.00 × 10^-6 Molar
  Percent of Control, Infected: 107.31%
HIV-1 [4]; dose 2.00 × 10^-6 Molar, 2 µM
  Percent of Protection: 107.69%
HIV-1 [4]; dose 2.00 × 10^-7 Molar
  Percent of Control, Infected: 99.97%
HIV-1 [4]; dose 2.00 × 10^-7 Molar, 0.2 µM
  Percent of Protection: 99.97%
HIV-1 [4]; dose 6.32 × 10^-5 Molar
  Percent of Control, Infected: 5.67%
HIV-1 [4]; dose 6.32 × 10^-5 Molar, 63.2 µM
  Percent of Protection: 0.71%
HIV-1 [4]; dose 6.33 × 10^-6 Molar
  Percent of Control, Infected: 100.65%
HIV-1 [4]; dose 6.33 × 10^-6 Molar, 6.33 µM
  Percent of Protection: 100.68%
HIV-1 [4]; dose 6.34 × 10^-7 Molar
  Percent of Control, Infected: 110.38%
HIV-1 [4]; dose 6.34 × 10^-7 Molar, 0.634 µM
  Percent of Protection: 110.93%
HIV-1 [4]; dose 6.35 × 10^-8 Molar
  Percent of Control, Infected: 88.79%
HIV-1 [4]; dose 6.35 × 10^-8 Molar, 0.0635 µM
  Percent of Protection: 88.20%
[5]; dose 2.00 × 10^-4 Molar
  Percent of Control, Uninfected: 1.98%
[5]; dose 2.00 × 10^-5 Molar
  Percent of Control, Uninfected: 36.62%
[5]; dose 2.00 × 10^-6 Molar
  Percent of Control, Uninfected: 88.74%
[5]; dose 2.00 × 10^-7 Molar
  Percent of Control, Uninfected: 92.07%
[5]; dose 6.32 × 10^-5 Molar
  Percent of Control, Uninfected: 15.40%
[5]; dose 6.33 × 10^-6 Molar
  Percent of Control, Uninfected: 87.28%
[5]; dose 6.34 × 10^-7 Molar
  Percent of Control, Uninfected: 97.06%
[5]; dose 6.35 × 10^-8 Molar
  Percent of Control, Uninfected: 96.33%
[5]
  IC50: 14.8 µM
